From patent EP0489581A2, “Cosmetic composition” (UNILEVER PLC, priority 1990, dated 1992)

Tested on: skin surface
Assay: Body shampoo streak of 0.1% EtNic against placebo on the other side (erythema meter, Cyclops pyrometer)
Format: in vivo, human
Design: ERYTHEMA METER AN / ERYTHEMA METER FA / ERYTHEMA METER UA / ERYTHEMA METER BR / ERYTHEMA METER SH / ERYTHEMA METER WA / ERYTHEMA METER HI / ERYTHEMA METER TH / ERYTHEMA METER CA: scale not given here; TEMPERATURE CHANGE FA / TEMPERATURE CHANGE UA / TEMPERATURE CHANGE BR / TEMPERATURE CHANGE SH / TEMPERATURE CHANGE WA / TEMPERATURE CHANGE HI / TEMPERATURE CHANGE TH / TEMPERATURE CHANGE CA / TEMPERATURE CHANGE AN: unit not given here
Details: for ERYTHEMA METER AN / TEMPERATURE CHANGE AN / ERYTHEMA METER CA / TEMPERATURE CHANGE CA / ERYTHEMA METER HI / TEMPERATURE CHANGE HI / ERYTHEMA METER FA / TEMPERATURE CHANGE FA / ERYTHEMA METER BR / TEMPERATURE CHANGE BR / ERYTHEMA METER SH / TEMPERATURE CHANGE SH / ERYTHEMA METER TH / TEMPERATURE CHANGE TH / ERYTHEMA METER UA / TEMPERATURE CHANGE UA / ERYTHEMA METER WA / TEMPERATURE CHANGE WA: 0.1% EtNic; for ERYTHEMA METER AN / TEMPERATURE CHANGE AN: ankle; for ERYTHEMA METER CA / TEMPERATURE CHANGE CA: calf; for ERYTHEMA METER HI / TEMPERATURE CHANGE HI: hip; for ERYTHEMA METER FA / TEMPERATURE CHANGE FA: mid forearm; for ERYTHEMA METER BR / TEMPERATURE CHANGE BR: side breast; for ERYTHEMA METER SH / TEMPERATURE CHANGE SH: side shoulder; for ERYTHEMA METER TH / TEMPERATURE CHANGE TH: thigh; for ERYTHEMA METER UA / TEMPERATURE CHANGE UA: upper arm; for ERYTHEMA METER WA / TEMPERATURE CHANGE WA: waist
Description: A subject showered in the conventional way but without shampoo or soap. The redness and temperature of the skin surface was measured at symmetrical points from the mid forearm down the body to the ankle, after the excess water had been removed by light towelling. The person re-showered and between 2 and 3 grammes of shampoo according to Example 5 was streaked down one side of the body in a broad line. The body shampoo was rubbed into a lather periodically during the two minutes. A placebo shampoo of corresponding composition was applied first to one side of the body and then the time started when the shampoo with the ethyl nicotinate was applied to the other side. […] The redness was measured with the erythema meter whilst the temperature was measured with a Cyclops pyrometer at ten sites on each side. The time was taken as the mean of the two times for each pair of sites. The time course was followed for about 50 minutes. After about 210 minutes the experiment was repeated, but treating the opposite sides. The result shown below are the differences in redness and temperature of the corresponding sites.

[1] = left hand side, mean time 0.00 (baseline), difference of corresponding sites
[2] = left hand side, mean time 17.56, difference of corresponding sites
[3] = left hand side, mean time 31.56, difference of corresponding sites
[4] = left hand side, mean time 44.89, difference of corresponding sites
[5] = left hand side, mean time 59.61, difference of corresponding sites
[6] = left hand side, mean time 77.21, difference of corresponding sites
[7] = left hand side, time 10.00, mean time 10.37, difference of corresponding sites
[8] = left hand side, time 25.00, mean time 24.98, difference of corresponding sites
[9] = left hand side, time 38.00, mean time 38.30, difference of corresponding sites
[10] = left hand side, time 53.00, mean time 52.87, difference of corresponding sites
[11] = right hand side, mean time 0.00 (baseline), difference of corresponding sites
[12] = right hand side, time 10.00, mean time 9.79, difference of corresponding sites
[13] = right hand side, time 26.00, mean time 26.13, difference of corresponding sites
[14] = right hand side, time 42.00, mean time 42.25, difference of corresponding sites
[15] = right hand side, time 210.00, mean time 209.78, difference of corresponding sites
[16] = all the sites, shampoo according to Example 5, two minutes

Compound: CCOC(=O)c1cccnc1 [EtNic, ethyl nicotinate]
- ERYTHEMA METER AN [1]: -0.53
- TEMPERATURE CHANGE AN [1]: -0.10
- TEMPERATURE CHANGE AN [2]: 0.30
- TEMPERATURE CHANGE AN [3]: -0.20
- TEMPERATURE CHANGE AN [4]: 0.70
- TEMPERATURE CHANGE AN [5]: 0.80
- TEMPERATURE CHANGE AN [6]: 0.30
- ERYTHEMA METER AN [7]: 0.29
- ERYTHEMA METER AN [8]: 0.56
- ERYTHEMA METER AN [9]: -0.43
- ERYTHEMA METER AN [10]: -0.25
- ERYTHEMA METER CA [1]: -0.26
- TEMPERATURE CHANGE CA [1]: -0.30
- TEMPERATURE CHANGE CA [2]: 2.90
- TEMPERATURE CHANGE CA [3]: 2.30
- TEMPERATURE CHANGE CA [4]: 1.10
- TEMPERATURE CHANGE CA [5]: 0.90
- TEMPERATURE CHANGE CA [6]: 0.50
- ERYTHEMA METER CA [7]: 0.26
- ERYTHEMA METER CA [8]: 0.41
- ERYTHEMA METER CA [9]: -0.17
- ERYTHEMA METER CA [10]: -0.12
- ERYTHEMA METER HI [1]: 0.03
- TEMPERATURE CHANGE HI [1]: 0.10
- TEMPERATURE CHANGE HI [2]: 1.10
- TEMPERATURE CHANGE HI [3]: 3.70
- TEMPERATURE CHANGE HI [4]: 3.30
- TEMPERATURE CHANGE HI [5]: 2.90
- TEMPERATURE CHANGE HI [6]: 2.20
- ERYTHEMA METER HI [7]: 0.74
- ERYTHEMA METER HI [8]: 0.31
- ERYTHEMA METER HI [9]: 0.12
- ERYTHEMA METER HI [10]: 0.13
- ERYTHEMA METER FA [1]: -0.65
- TEMPERATURE CHANGE FA [1]: -0.20
- TEMPERATURE CHANGE FA [2]: -0.50
- TEMPERATURE CHANGE FA [3]: 0.20
- TEMPERATURE CHANGE FA [4]: -0.30
- TEMPERATURE CHANGE FA [5]: 0.20
- TEMPERATURE CHANGE FA [6]: 0.00
- ERYTHEMA METER FA [7]: 0.39
- ERYTHEMA METER FA [8]: 0.00
- ERYTHEMA METER FA [9]: -0.06
- ERYTHEMA METER FA [10]: 0.05
- ERYTHEMA METER BR [1]: -0.12
- TEMPERATURE CHANGE BR [1]: -1.10
- TEMPERATURE CHANGE BR [2]: 4.80
- TEMPERATURE CHANGE BR [3]: 4.80
- TEMPERATURE CHANGE BR [4]: 4.30
- TEMPERATURE CHANGE BR [5]: 1.70
- TEMPERATURE CHANGE BR [6]: 1.00
- ERYTHEMA METER BR [7]: 1.09
- ERYTHEMA METER BR [8]: 0.71
- ERYTHEMA METER BR [9]: 0.91
- ERYTHEMA METER BR [10]: 0.41
- ERYTHEMA METER SH [1]: 0.00
- TEMPERATURE CHANGE SH [1]: 0.40
- TEMPERATURE CHANGE SH [2]: 3.40
- TEMPERATURE CHANGE SH [3]: 4.50
- TEMPERATURE CHANGE SH [4]: 3.30
- TEMPERATURE CHANGE SH [5]: 1.50
- TEMPERATURE CHANGE SH [6]: 0.30
- ERYTHEMA METER SH [7]: 1.08
- ERYTHEMA METER SH [8]: 1.06
- ERYTHEMA METER SH [9]: 0.77
- ERYTHEMA METER SH [10]: 0.38
- ERYTHEMA METER TH [1]: -0.23
- TEMPERATURE CHANGE TH [1]: 0.10
- TEMPERATURE CHANGE TH [2]: 3.70
- TEMPERATURE CHANGE TH [3]: 3.20
- TEMPERATURE CHANGE TH [4]: 2.50
- TEMPERATURE CHANGE TH [5]: 1.90
- TEMPERATURE CHANGE TH [6]: 1.30
- ERYTHEMA METER TH [7]: 0.47
- ERYTHEMA METER TH [8]: 0.43
- ERYTHEMA METER TH [9]: 0.28
- ERYTHEMA METER TH [10]: 0.17
- ERYTHEMA METER UA [1]: -0.28
- TEMPERATURE CHANGE UA [1]: 0.00
- TEMPERATURE CHANGE UA [2]: 3.10
- TEMPERATURE CHANGE UA [3]: 3.60
- TEMPERATURE CHANGE UA [4]: 2.70
- TEMPERATURE CHANGE UA [5]: 1.80
- TEMPERATURE CHANGE UA [6]: 1.40
- ERYTHEMA METER UA [7]: 1.35
- ERYTHEMA METER UA [8]: 0.67
- ERYTHEMA METER UA [9]: 0.82
- ERYTHEMA METER UA [10]: 0.23
- ERYTHEMA METER WA [1]: 0.03
- TEMPERATURE CHANGE WA [1]: -0.30
- TEMPERATURE CHANGE WA [2]: 4.80
- TEMPERATURE CHANGE WA [3]: 6.80
- TEMPERATURE CHANGE WA [4]: 6.40
- TEMPERATURE CHANGE WA [5]: 5.00
- TEMPERATURE CHANGE WA [6]: 3.60
- ERYTHEMA METER WA [7]: 0.66
- ERYTHEMA METER WA [8]: 0.44
- ERYTHEMA METER WA [9]: 0.79
- ERYTHEMA METER WA [10]: 0.05
- ERYTHEMA METER AN [11]: 0.08
- ERYTHEMA METER AN [12]: 0.62
- ERYTHEMA METER AN [13]: 0.57
- ERYTHEMA METER AN [14]: 0.57
- ERYTHEMA METER AN [15]: 0.53
- ERYTHEMA METER CA [11]: 0.06
- ERYTHEMA METER CA [12]: 0.87
- ERYTHEMA METER CA [13]: 0.75
- ERYTHEMA METER CA [14]: 0.58
- ERYTHEMA METER CA [15]: 0.26
- ERYTHEMA METER HI [11]: 0.44
- ERYTHEMA METER HI [12]: 0.92
- ERYTHEMA METER HI [13]: 0.55
- ERYTHEMA METER HI [14]: 0.50
- ERYTHEMA METER HI [15]: -0.03
- ERYTHEMA METER FA [11]: 0.20
- ERYTHEMA METER FA [12]: -0.28
- ERYTHEMA METER FA [13]: 0.51
- ERYTHEMA METER FA [14]: 0.41
- ERYTHEMA METER FA [15]: 0.65
- ERYTHEMA METER BR [11]: 0.06
- ERYTHEMA METER BR [12]: 1.20
- ERYTHEMA METER BR [13]: 1.48
- ERYTHEMA METER BR [14]: 0.72
- ERYTHEMA METER BR [15]: 0.12
- ERYTHEMA METER SH [11]: 0.12
- ERYTHEMA METER SH [12]: 1.81
- ERYTHEMA METER SH [13]: 1.61
- ERYTHEMA METER SH [14]: 0.81
- ERYTHEMA METER SH [15]: 0.00
- ERYTHEMA METER TH [11]: 0.07
- ERYTHEMA METER TH [12]: 0.87
- ERYTHEMA METER TH [13]: 0.43
- ERYTHEMA METER TH [14]: 0.04
- ERYTHEMA METER TH [15]: 0.23
- ERYTHEMA METER UA [11]: 0.38
- ERYTHEMA METER UA [12]: 0.89
- ERYTHEMA METER UA [13]: 1.40
- ERYTHEMA METER UA [14]: 0.74
- ERYTHEMA METER UA [15]: 0.28
- ERYTHEMA METER WA [11]: 0.06
- ERYTHEMA METER WA [12]: 1.16
- ERYTHEMA METER WA [13]: 1.09
- ERYTHEMA METER WA [14]: 0.70
- ERYTHEMA METER WA [15]: -0.03
- redness [16]: increase
- temperature [16]: increase
- maximum temperature difference (at the waist): seven
